One compound from US11090312B2, “Methods of treating hypogonadism with transnasal testerosterone bio-adhesive gel formulations in male with allergic rhinitis, and methods for preventing an allergic rhinitis event” (Acerus Biopharma Inc., priority 2013, dated 2021) can be followed below.

Data set [1] is described as follows: Solubility of testosterone in water, solvents and oils. Conditions: maximum.
Data set [2] in a line: pKa assessment of testosterone. The conditions noted are these: from molecular structure.

Some results are limits rather than exact numbers.

On to `C[C@]12CC[C@H]3[C@@H](CCC4=CC(=O)CC[C@@]43C)[C@@H]1CC[C@@H]2O` [Testosterone, 17β-Hydroxyandrost-4-en-3-one], for which the “Solubility in castor oil pure” value in data set [1] was at most 3.6%. For the same compound, the pKa entry in data set [2] was “no pKa value in the range 1-14”.
